This test has as its target human H3 receptor (Homo sapiens, UniProt Q9Y5N1). Nature of the test: H3 Receptor Binding (Human) Method 2, [125I]-iodoproxyfan competitive radioligand binding. On the set-up: expressed in transfected cells. As to conditions: read-out: Human H3 Ki.

31 compounds from US8236792B2, “Substituted pyrrolidine amides as modulators of the histamine H3 receptor” (Janssen Pharmaceutica NV, priority 2008, dated 2012) can be followed below.

Some results are limits rather than exact numbers.

Chain of human H3 receptor (Q9Y5N1 whole entry): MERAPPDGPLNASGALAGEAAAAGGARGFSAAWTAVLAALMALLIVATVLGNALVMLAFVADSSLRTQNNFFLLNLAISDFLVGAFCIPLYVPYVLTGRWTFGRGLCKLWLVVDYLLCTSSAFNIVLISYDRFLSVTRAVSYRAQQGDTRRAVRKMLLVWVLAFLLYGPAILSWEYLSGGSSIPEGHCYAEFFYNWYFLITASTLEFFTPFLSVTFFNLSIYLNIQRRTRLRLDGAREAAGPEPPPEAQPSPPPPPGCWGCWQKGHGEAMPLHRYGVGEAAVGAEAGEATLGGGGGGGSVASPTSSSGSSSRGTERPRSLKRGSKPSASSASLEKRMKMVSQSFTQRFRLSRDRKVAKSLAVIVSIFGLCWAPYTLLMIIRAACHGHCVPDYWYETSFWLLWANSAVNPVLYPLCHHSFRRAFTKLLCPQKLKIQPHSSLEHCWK

`CC(C)(C)OC(=O)N1C[C@H](Oc2ccccn2)C[C@H]1C(=O)N1CCCN(C2CCC2)CC1` (stereo in doubt) [Example 50, (2S,4R)-2-(4-Cyclobutyl-[1,4]diazepane-1-carbonyl)-4-(pyridin-2-yloxy)-pyrrolidine-1-carboxylic acid tert-butyl ester]: the Ki (usually a dissociation constant, usually derived from enzyme kinetics or from competition with a known ligand) is 0.005 µM.

As to `Cc1cnc(F)cc1O[C@@H]1C[C@@H](C(=O)N2CCCN(C3CCC3)CC2)N(C(=O)OC(C)(C)C)C1` (stereo in doubt) [Example 51, (2S,4R)-2-(4-Cyclobutyl-[1,4]diazepane-1-carbonyl)-4-(2-fluoro-5-methyl-pyridin-4-yloxy)-pyrrolidine-1-carboxylic acid tert-butyl ester], the Ki came out at 0.002 µM.

Take `CC(C)(C)OC(=O)N1CC[C@H](O)[C@H]1C(=O)N1CCCN(C2CCC2)CC1` [Example 3, (2S,3S)-2-(4-Cyclobutyl-[1,4]diazepane-1-carbonyl)-3-hydroxy-pyrrolidine-1-carboxylic acid tert-butyl Ester]: the Ki amounted to 1.27 µM.

With `CC(C)(C)OC(=O)N1C[C@@H](O)C[C@@H]1C(=O)N1CCCN(C2CCC2)CC1` [Example 4, (2R,4S)-2-(4-Cyclobutyl-[1,4]diazepane-1-carbonyl)-4-hydroxy-pyrrolidine-1-carboxylic acid tert-butyl Ester], the Ki was 0.053 µM.

Take `CC(C)(C)OC(=O)N1C[C@H](O)C[C@@H]1C(=O)N1CCCN(C2CC2)CC1` [Example 5, (2R,4R)-2-(4-Cyclopropyl-[1,4]diazepane-1-carbonyl)-4-hydroxy-pyrrolidine-1-carboxylic acid tert-butyl Ester]: the Ki came out at 1.25 µM.

For `CC(C)(C)OC(=O)N1C[C@H](O)C[C@@H]1C(=O)N1CCN(C2CCCC2)CC1` [Example 6, (2R,4R)-2-(4-Cyclopentyl-piperazine-1-carbonyl)-4-hydroxy-pyrrolidine-1-carboxylic acid tert-butyl Ester], the Ki was determined as 1.11 µM.

Take `CC(C)(C)OC(=O)N1C[C@H](O)C[C@@H]1C(=O)N1CCCN(C2CCCC2)CC1` [Example 7, (2R,4R)-2-(4-Cyclopentyl-[1,4]diazepane-1-carbonyl)-4-hydroxy-pyrrolidine-1-carboxylic acid tert-butyl Ester]: the Ki stood at 0.432 µM.

`CC(C)(C)OC(=O)N1C[C@H](O)C[C@@H]1C(=O)N1CCCN(C2CCC2)CC1` [Example 8, (2R,4R)-2-(4-Cyclobutyl-[1,4]diazepane-1-carbonyl)-4-hydroxy-pyrrolidine-1-carboxylic acid tert-butyl Ester]: the Ki is 0.534 µM.

Regarding `O=C([C@H]1C[C@@H](O)CN1C(=O)OCc1ccccc1)N1CCCN(C2CCC2)CC1` [Example 9, (2R,4R)-2-(4-Cyclobutyl-[1,4]diazepane-1-carbonyl)-4-hydroxy-pyrrolidine-1-carboxylic Acid Benzyl Ester], the Ki is 0.05 µM.

On to `CC(=O)N1C[C@@H](O)C[C@@H]1C(=O)N1CCCN(C2CCC2)CC1` [Example 10, (2R,4S)-1-[2-(4-Cyclobutyl-[1,4]diazepane-1-carbonyl)-4-hydroxy-pyrrolidin-1-yl]-ethanone], for which the Ki is 0.115 µM.

Consider `CC(C)(C)OC(=O)N1C[C@@H](Oc2ccccc2)C[C@H]1C(=O)N1CCCN(C2CCC2)CC1` [Example 14, (2S,4S)-2-(4-Cyclobutyl-[1,4]diazepane-1-carbonyl)-4-phenoxy-pyrrolidine-1-carboxylic acid tert-butyl ester], for which the Ki worked out at 0.126 µM.

Take `CSc1ccc(O[C@H]2C[C@H](C(=O)N3CCCN(C4CCC4)CC3)N(C(=O)OC(C)(C)C)C2)cc1` [Example 23, (2R,4S)-2-(4-Cyclobutyl-[1,4]diazepane-1-carbonyl)-4-(4-methylsulfanyl-phenoxy)-pyrrolidine-1-carboxylic acid tert-butyl ester]: the Ki stood at 0.007 µM.

As for `Cc1cc(O[C@H]2C[C@H](C(=O)N3CCCN(C4CCC4)CC3)N(C(=O)OC(C)(C)C)C2)ccc1Cl` [Example 24, (2R,4S)-4-(4-Chloro-3-methyl-phenoxy)-2-(4-cyclobutyl-[1,4]diazepane-1-carbonyl)-pyrrolidine-1-carboxylic acid tert-butyl ester], the Ki came to 0.004 µM.

Turning to `CC(C)(C)OC(=O)N1C[C@@H](Oc2ccc(S(C)(=O)=O)cc2)C[C@@H]1C(=O)N1CCCN(C2CCC2)CC1` [Example 25, (2R,4S)-2-(4-Cyclobutyl-[1,4]diazepane-1-carbonyl)-4-(4-methanesulfonyl-phenoxy)-pyrrolidine-1-carboxylic acid tert-butyl ester], the Ki stood at 0.005 µM.

As to `COc1cccc(O[C@H]2C[C@H](C(=O)N3CCCN(C4CCC4)CC3)N(C(=O)OC(C)(C)C)C2)c1` [Example 26, (2R,4S)-2-(4-Cyclobutyl-[1,4]diazepane-1-carbonyl)-4-(3-methoxy-phenoxy)-pyrrolidine-1-carboxylic acid tert-butyl ester], the inhibition constant Ki is 0.012 µM.

As for `CC(C)(C)OC(=O)N1C[C@@H](Oc2ccc(C(F)(F)F)cc2)C[C@@H]1C(=O)N1CCCN(C2CCC2)CC1` [Example 28, (2R,4S)-2-(4-Cyclobutyl-[1,4]diazepane-1-carbonyl)-4-(4-trifluoromethyl-phenoxy)-pyrrolidine-1-carboxylic acid tert-butyl ester], the Ki was found to be 0.007 µM.

As for `Cc1ccc(O[C@H]2C[C@H](C(=O)N3CCCN(C4CCC4)CC3)N(C(=O)OC(C)(C)C)C2)cc1` [Example 29, (2R,4S)-2-(4-Cyclobutyl-[1,4]diazepane-1-carbonyl)-4-p-tolyloxy-pyrrolidine-1-carboxylic acid tert-butyl ester], the Ki was 0.008 µM.

For the compound `Cc1ccccc1O[C@H]1C[C@H](C(=O)N2CCCN(C3CCC3)CC2)N(C(=O)OC(C)(C)C)C1` [Example 30, (2R,4S)-2-(4-Cyclobutyl-[1,4]diazepane-1-carbonyl)-4-o-tolyloxy-pyrrolidine-1-carboxylic acid tert-butyl ester], the Ki was 0.008 µM.

`CC(C)(C)OC(=O)N1C[C@@H](Oc2ccc(F)cc2)C[C@@H]1C(=O)N1CCCN(C2CC2)CC1` [Example 31, (2R,4S)-2-(4-Cyclopropyl-[1,4]diazepane-1-carbonyl)-4-(4-fluoro-phenoxy)-pyrrolidine-1-carboxylic acid tert-butyl ester]: the Ki was determined as 0.015 µM.

Regarding `CC(C)(C)OC(=O)N1C[C@@H](Oc2ccc(C#N)cc2)C[C@@H]1C(=O)N1CCCN(C2CC2)CC1` [Example 32, (2R,4S)-4-(4-Cyano-phenoxy)-2-(4-cyclopropyl-[1,4]diazepane-1-carbonyl)-pyrrolidine-1-carboxylic acid tert-butyl ester], the Ki was 0.01 µM.

For the compound `CC(C)(C)OC(=O)N1C[C@@H](Oc2ccc(F)cc2)C[C@@H]1C(=O)N1CCN(C2CCCC2)CC1` [Example 33, (2R,4S)-2-(4-Cyclopentyl-piperazine-1-carbonyl)-4-(4-fluoro-phenoxy)-pyrrolidine-1-carboxylic acid tert-butyl ester], the Ki was 0.024 µM.

As to `CC(C)(C)OC(=O)N1C[C@@H](Oc2ccc(C#N)cc2)C[C@@H]1C(=O)N1CCN(C2CCCC2)CC1` [Example 34, (2R,4S)-4-(4-Cyano-phenoxy)-2-(4-cyclopentyl-piperazine-1-carbonyl)-pyrrolidine-1-carboxylic acid tert-butyl ester], the Ki is 0.014 µM.

Regarding `CC(C)(C)OC(=O)N1C[C@@H](Oc2ccc(F)cc2)C[C@@H]1C(=O)N1CCCN(C2CCCC2)CC1` [Example 35, (2R,4S)-2-(4-Cyclopentyl-[1,4]diazepane-1-carbonyl)-4-(4-fluoro-phenoxy)-pyrrolidine-1-carboxylic acid tert-butyl ester], the Ki was 0.002 µM.

As to `CC(C)(C)OC(=O)N1C[C@@H](Oc2ccc(C#N)cc2)C[C@@H]1C(=O)N1CCCN(C2CCCC2)CC1` [Example 36, (2R,4S)-4-(4-Cyano-phenoxy)-2-(4-cyclopentyl-[1,4]diazepane-1-carbonyl)-pyrrolidine-1-carboxylic acid tert-butyl ester], the Ki turned out to be 0.003 µM.

Consider `CN(C)[C@@H]1CCN(C(=O)[C@H]2C[C@H](Oc3cccc(F)c3)CN2C(=O)OC(C)(C)C)C1` [Example 37, (2R,4S)-2-((3R)-3-Dimethylamino-pyrrolidine-1-carbonyl)-4-(3-fluoro-phenoxy)-pyrrolidine-1-carboxylic acid tert-butyl ester], for which the Ki is above 10 µM.

As for `CC(C)(C)OC(=O)N1C[C@@H](Oc2cccc(F)c2)C[C@@H]1C(=O)N1CCC(N2CCCC2)C1` (stereo partly drawn) [Example 39, (2R,4S)-2-([1,3′]Bipyrrolidinyl-1′-carbonyl)-4-(3-fluoro-Phenoxy)-pyrrolidine-1-carboxylic acid tert-butyl ester], the Ki turned out to be 0.043 µM.

Regarding `CN(C)C1CCN(C(=O)[C@H]2C[C@H](Oc3ccc(F)cc3)CN2C(=O)OC(C)(C)C)CC1` [Example 40, (2R,4S)-2-(4-Dimethylamino-piperidine-1-carbonyl)-4-(4-fluoro-phenoxy)-pyrrolidine-1-carboxylic acid tert-butyl ester], the Ki was 1.24 µM.

Turning to `CC(C)(C)OC(=O)N1C[C@H](Oc2ccccc2)C[C@H]1C(=O)N1CCCN(C2CCC2)CC1` [Example 48, (2S,4R)-2-(4-Cyclobutyl-[1,4]diazepane-1-carbonyl)-4-phenoxy-pyrrolidine-1-carboxylic acid tert-butyl ester], the Ki came out at 0.014 µM.

As for `CC(C)(C)OC(=O)N1C[C@H](Oc2cccc(F)c2)C[C@H]1C(=O)N1CCCN(C2CCC2)CC1` [Example 49, (2S,4R)-2-(4-Cyclobutyl-[1,4]diazepane-1-carbonyl)-4-(3-fluoro-phenoxy)-pyrrolidine-1-carboxylic acid tert-butyl ester], the Ki stood at 0.006 µM.

In the case of `Cc1cnc(O[C@H]2C[C@H](C(=O)N3CCCN(C4CCC4)CC3)N(C(=O)OC(C)(C)C)C2)cc1I` [Example 52, (2R,4S)-2-(4-Cyclobutyl-[1,4]diazepane-1-carbonyl)-4-(4-iodo-5-methyl-pyridin-2-yloxy)-pyrrolidine-1-carboxylic acid tert-butyl ester], the Ki came out at 0.008 µM.

As for `CC(C)(C)OC(=O)N1C[C@@H](Oc2cccnc2)C[C@@H]1C(=O)N1CCCN(C2CCC2)CC1` [Example 53, (2R,4S)-2-(4-Cyclobutyl-[1,4]diazepane-1-carbonyl)-4-(pyridin-3-yloxy)-pyrrolidine-1-carboxylic acid tert-butyl ester], the Ki stood at 0.002 µM.
